These results are taken from patent publication US20120129842A1, “BISTHIAZOLE INHIBITORS OF PRO-MATRIX METALLOPROTEINASE ACTIVATION” (priority 2010, published 2012).

Where a name gives a salt, the structure may show the parent alone.

Experiment [1] has as its target T1, proMMP9(20-445;ΔFnII) (SEQ ID NO:6) (Homo sapiens, UniProt P14780, DEL216-390).
T1 construct: start methionine (N); made in house; host or cells: E. coli BL21(DE3) RIL
T1 sequence (P14780 with tags, fused parts or gaps DEL216-390): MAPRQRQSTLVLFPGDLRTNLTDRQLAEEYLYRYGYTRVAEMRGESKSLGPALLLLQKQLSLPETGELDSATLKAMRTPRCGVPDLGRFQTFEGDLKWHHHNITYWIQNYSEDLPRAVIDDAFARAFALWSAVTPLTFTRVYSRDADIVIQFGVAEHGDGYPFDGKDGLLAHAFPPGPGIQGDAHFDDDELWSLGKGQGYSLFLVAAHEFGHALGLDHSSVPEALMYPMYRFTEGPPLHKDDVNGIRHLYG
As to the kind of experiment: ThermoFluor binding assay with proMMP9(20-445;ΔFnII). As to conditions: pH 7.0. An outline of the steps:
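proMMP9(20-445;ΔFnII) at 2.8 μM with 50 μM 1,8-ANS in 50 mM HEPES pH 7.0, 100 mM NaCl, 0.001% Tween-20, 2.5 mM MgCl2, 300 μM CaCl2; compounds serially diluted in DMSO. Heated 40–90 °C at 1 °C/min, fluorescence read at 500±25 nm. Tm fit by standard equations; binding fit using DSC/TF-derived thermodynamic parameters.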
A general note: DSF heats the sample and reads unfolding from a dye or from intrinsic fluorescence.

For experiment [2], the target named is T2, proMMP9(67-444;ΔFnII) (SEQ ID NO:5) (Homo sapiens, UniProt P14780, DEL216-390).
T2 construct: start methionine (N); made in house; host or cells: E. coli BL21(DE3) RIL
T2 sequence (P14780 with tags, fused parts or gaps DEL216-390): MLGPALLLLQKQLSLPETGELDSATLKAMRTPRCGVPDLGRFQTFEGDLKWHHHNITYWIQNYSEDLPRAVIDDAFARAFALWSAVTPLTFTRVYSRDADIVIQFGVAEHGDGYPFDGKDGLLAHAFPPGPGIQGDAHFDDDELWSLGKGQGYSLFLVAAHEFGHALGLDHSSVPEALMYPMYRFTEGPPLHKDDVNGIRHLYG
As to the kind of experiment: ThermoFluor binding assay with proMMP9(67-444;ΔFnII). Particulars: pH 7.0. An outline of the steps:
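Thermal shift binding with 3.5 μM proMMP9(67-444;ΔFnII) and 50 μM 1,8-ANS in 50 mM HEPES pH 7.0, 100 mM NaCl, 2.5 mM MgCl2, 300 μM CaCl2, 0.001% Tween-20, with serially diluted compound. Heated 40 to 90° C at 1° C/min; fluorescence-derived Tm fitted using DSC/ThermoFluor thermodynamic parameters.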

Experiment [3] deals with T3, full-length proMMP9(1-707) (SEQ ID NO:1) (Homo sapiens, UniProt P14780, R574P).
T3 construct: made in house; host or cells: HEK293 (proMMP9, secreted); E. coli (MMP3)
As to the kind of experiment: proMMP9/MMP3 P126 Activation Assay. Type of experiment: biochemical. As to conditions: 20 nM proMMP9, 20 nM MMP3, 80 min 37° C. How it is done: The reaction volume was 50 μL. […] Reactivity of residual MMP3 towards P-126 substrate was minimal under these conditions.

In experiment [4] the target is proMMP13(1-268) (SEQ ID NO:7) (Homo sapiens, UniProt P45452). Kind of experiment: ThermoFluor binding assay with proMMP13(1-268). Details: 6xHis (C); made in house. As to conditions: pH 7.0. The method, boiled down: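 Thermal shift binding with 3.5 μM protein and 25 μM 1,8-ANS in 50 mM HEPES pH 7.0, 100 mM NaCl, 0.001% Tween-20, 2.5 mM MgCl2, 300 μM CaCl2. Samples were heated 40 to 90 °C at 1 °C/min, fluorescence read at 500 nm. Tm shifts across an 11-point DMSO dilution series were fitted with DSC-derived thermodynamic parameters.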

T3 sequence (P14780 20-707 R574P): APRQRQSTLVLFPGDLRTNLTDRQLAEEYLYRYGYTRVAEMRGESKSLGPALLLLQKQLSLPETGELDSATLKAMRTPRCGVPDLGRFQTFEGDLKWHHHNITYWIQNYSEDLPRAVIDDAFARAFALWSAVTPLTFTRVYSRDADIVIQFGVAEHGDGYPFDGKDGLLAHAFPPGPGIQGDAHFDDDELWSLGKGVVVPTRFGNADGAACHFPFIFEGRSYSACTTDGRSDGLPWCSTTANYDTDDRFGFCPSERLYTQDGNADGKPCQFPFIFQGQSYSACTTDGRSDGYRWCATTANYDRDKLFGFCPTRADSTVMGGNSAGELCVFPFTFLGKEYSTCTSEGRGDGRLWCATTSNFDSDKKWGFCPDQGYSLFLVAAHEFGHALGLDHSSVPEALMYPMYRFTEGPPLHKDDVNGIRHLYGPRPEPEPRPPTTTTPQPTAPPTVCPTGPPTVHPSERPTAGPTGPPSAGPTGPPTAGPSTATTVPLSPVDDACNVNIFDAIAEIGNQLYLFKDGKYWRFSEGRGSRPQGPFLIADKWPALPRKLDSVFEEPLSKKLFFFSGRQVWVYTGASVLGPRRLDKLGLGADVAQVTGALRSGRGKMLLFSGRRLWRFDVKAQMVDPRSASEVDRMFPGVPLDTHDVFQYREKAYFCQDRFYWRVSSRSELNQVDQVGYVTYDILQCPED

As usually defined, the Kd is the free concentration of one partner at which half of the binding sites on the other are occupied at equilibrium, for simple one-to-one binding. Higher therefore signals a looser complex. As a reminder, the IC50 is the point on the concentration scale where inhibition reaches its midpoint. Read a high IC50 as weaker potency. As to `Cc1nc(C(=O)N2CCN(c3ccc(C(F)(F)F)cn3)CC2)sc1-c1csc(Nc2cc(C(N)=O)ccc2OC(C)C)n1` [Example 109, 4-Isopropoxy-3-{4′-methyl-2′-[4-(5-trifluoromethyl-pyridin-2-yl)-piperazine-1-carbonyl]-[4,5′]bithiazolyl-2-ylamino}-benzamide.TFA], the Kd in experiment [1] is 3800 nM; in experiment [2], over 95000 nM; in experiment [4], over 95000 nM. Further, it took 5700 nM to reach half-maximal inhibition in experiment [3] (IC50).
Turning to `Cc1nc(C(=O)N2CCC(N(C)C)CC2)sc1-c1csc(Nc2cc(C(N)=O)ccc2OC(C)C)n1` [Example 110, 3-[2′-(4-Dimethylamino-piperidine-1-carbonyl)-4′-methyl-[4,5]bithiazolyl-2-ylamino]-4-isopropoxy-benzamide.TFA], the Kd in experiment [1] amounted to 130 nM; in experiment [2] it was 480 nM; in experiment [4] it was 690 nM. This molecule also returned an IC50 in experiment [3] of 200 nM.
For `Cc1nc(C(=O)NC2CCN(C(C)C)CC2)sc1-c1csc(Nc2cc(C(N)=O)ccc2OC(C)C)n1` [Example 111, 2-(5-Carbamoyl-2-isopropoxy-phenylamino)-4′-methyl-[4,5′]bithiazolyl-2′-carboxylic acid (1-isopropyl-piperidin-4-yl)-amide.TFA], the Kd in experiment [1] worked out at 86 nM; in experiment [2], 290 nM; in experiment [4], 360 nM. This molecule also showed an IC50 in experiment [3] of 81 nM.
Consider `Cc1nc(C(=O)N2CCCN(C(C)C)CC2)sc1-c1csc(Nc2cc(C(N)=O)ccc2OC(C)C)n1` [Example 112, 4-Isopropoxy-3-[2′-(4-isopropyl-[1,4]diazepane-1-carbonyl)-4′-methyl-[4,5]bithiazolyl-2-ylamino]-benzamide.TFA], for which the Kd in experiment [1] is 1400 nM; in experiment [2], 2200 nM; in experiment [4], over 57000 nM. In addition, half-maximal inhibition in experiment [3] (IC50) required 520 nM.
Consider `Cc1nc(C(=O)NC2CCN(C)CC2)sc1-c1csc(Nc2cc(C(N)=O)ccc2OC(C)C)n1` [Example 113, 2-(5-Carbamoyl-2-isopropoxy-phenylamino)-4′-methyl-[4,5′]bithiazolyl-2′-carboxylic acid (1-methyl-piperidin-4-yl)-amide.TFA], for which the values for the Kd in experiment [1], in experiment [2] and in experiment [4] were 1500 nM, 1900 nM and over 57000 nM, respectively. The molecule further showed an IC50 in experiment [3] of 570 nM.
As to `CCN1CCCN(C(=O)c2nc(C)c(-c3csc(Nc4cc(C(N)=O)ccc4OC(C)C)n3)s2)CC1` [Example 114, 3-[2′-(4-Ethyl-[1,4]diazepane-1-carbonyl)-4′-methyl-[4,5′]bithiazolyl-2-ylamino]-4-isopropoxy-benzamide.TFA], the Kd amounted to 690 nM in experiment [1], 960 nM in experiment [2] and 1800 nM in experiment [4]. This molecule also came in with an IC50 in experiment [3] of 310 nM.
Consider `CCOc1ccc(C(N)=O)cc1Nc1nc(-c2sc(C(=O)N3CCN(C)CC3)nc2C)cs1` [Example 115, 4-Ethoxy-3-[4′-methyl-2′-(4-methyl-piperazine-1-carbonyl)-[4,5′]bithiazolyl-2-ylamino]-benzamide.TFA], for which the values for the Kd in experiment [1], in experiment [2] and in experiment [4] were 2800 nM, 3800 nM and 6400 nM, respectively. The IC50 in experiment [3] amounted to 880 nM.
On to `CCOc1ccc(C(N)=O)cc1Nc1nc(-c2sc(C(=O)N3CCCN(C(C)C)CC3)nc2C)cs1` [Example 116, 4-Ethoxy-3-[2′-(4-isopropyl-[1,4]diazepane-1-carbonyl)-4′-methyl-[4,5]bithiazolyl-2-ylamino]-benzamide.TFA], for which the results for the Kd in experiment [1], in experiment [2] and in experiment [4] were 2700 nM, 1400 nM and 6700 nM, respectively. In addition, in experiment [3], the IC50 is 500 nM.
For `CCOc1ccc(C(N)=O)cc1Nc1nc(-c2sc(C(=O)N3CCN(CC)CC3)nc2C)cs1` [Example 117, 4-Ethoxy-3-[2′-(4-ethyl-piperazine-1-carbonyl)-4′-methyl-[4,5]bithiazolyl-2-ylamino]-benzamide.TFA], the Kd was found to be 680 nM in experiment [1], 2000 nM in experiment [2] and 6900 nM in experiment [4]. Further, the IC50 in experiment [3] turned out to be 670 nM.
For `CCOc1ccc(C(N)=O)cc1Nc1nc(-c2sc(C(=O)N3CCN(C(C)C)CC3)nc2C)cs1` [Example 118, 4-Ethoxy-3-[2′-(4-isopropyl-piperazine-1-carbonyl)-4′-methyl-[4,5]bithiazolyl-2-ylamino]-benzamide.TFA], the Kd is 640 nM in experiment [1], 1200 nM in experiment [2] and 5500 nM in experiment [4]. The same molecule displayed an IC50 in experiment [3] of 1100 nM.
The matching figures for `CCOc1ccc(C(N)=O)cc1Nc1nc(-c2sc(C(=O)N3CCCN(C)CC3)nc2C)cs1` [Example 119, 4-Ethoxy-3-[4′-methyl-2′-(4-methyl-[1,4]diazepane-1-carbonyl)-[4,5′]bithiazolyl-2-ylamino]-benzamide.TFA]: 3300 nM, 2200 nM, 6200 nM and 520 nM.
Consider `CCOc1ccc(C(N)=O)cc1Nc1nc(-c2sc(C(=O)N3CCCN(CC)CC3)nc2C)cs1` [Example 120, 4-Ethoxy-3-[2′-(4-ethyl-[1,4]diazepane-1-carbonyl)-4′-methyl-[4,5]bithiazolyl-2-ylamino]-benzamide.TFA], for which the Kd in experiment [1] was found to be 2500 nM; in experiment [2], 1600 nM; in experiment [4] it was 5600 nM. The IC50 in experiment [3] turned out to be 480 nM.
For the molecule `CCOc1ccc(C(N)=O)cc1Nc1nc(-c2sc(C(=O)NC3CCN(C)CC3)nc2C)cs1` [Example 121, 2-(5-Carbamoyl-2-ethoxy-phenylamino)-4′-methyl-[4,5′]bithiazolyl-2′-carboxylic acid (1-methyl-piperidin-4-yl)-amide.TFA], the Kd turned out to be 2400 nM in experiment [1], 1200 nM in experiment [2] and 8700 nM in experiment [4]. In addition, half-maximal inhibition in experiment [3] (IC50) was put at 370 nM.
For the molecule `CCOc1ccc(C(N)=O)cc1Nc1nc(-c2sc(C(=O)NC3CCN(C(C)C)CC3)nc2C)cs1` [Example 122, 2-(5-Carbamoyl-2-ethoxy-phenylamino)-4′-methyl-[4,5′]bithiazolyl-2′-carboxylic acid (1-isopropyl-piperidin-4-yl)-amide.TFA], the equilibrium dissociation constant (Kd) in experiment [1] turned out to be 830 nM; in experiment [2], 670 nM; in experiment [4], 4900 nM. In experiment [3], this molecule had a half-inhibitory concentration (IC50) of 250 nM.
For `CCOc1ccc(C(N)=O)cc1Nc1nc(-c2sc(C(=O)N(C)CCN(C)C)nc2C)cs1` [Example 123, 2-(5-Carbamoyl-2-ethoxy-phenylamino)-4′-methyl-[4,5′]bithiazolyl-2′-carboxylic acid (2-dimethylamino-ethyl)-methyl-amide.TFA], the Kd in experiment [1] amounted to 280 nM; in experiment [2] it was 1000 nM; in experiment [4], 1800 nM. For the same molecule, the IC50 in experiment [3] came to 440 nM.
For `Cc1nc(CN2CCOCC2)sc1-c1csc(Nc2cc(C(N)=O)ccc2OC(C)C)n1` [Example 124, 4-Isopropoxy-3-(4′-methyl-2′-morpholin-4-ylmethyl-[4,5′]bithiazolyl-2-ylamino)-benzamide.TFA], the Kd was found to be 650 nM in experiment [1], 3700 nM in experiment [2] and 6100 nM in experiment [4]. In experiment [3], inhibition was half-maximal at 670 nM (IC50).
As to `Cc1nc(CN2CCN(C(C)C)CC2)sc1-c1csc(Nc2cc(C(N)=O)ccc2OC(C)C)n1` [Example 125, 4-Isopropoxy-3-[2′-(4-isopropyl-piperazin-1-ylmethyl)-4′-methyl-[4,5]bithiazolyl-2-ylamino]-benzamide.TFA], the Kd stood at 580 nM in experiment [1], 3200 nM in experiment [2] and 4900 nM in experiment [4]. This molecule had an IC50 in experiment [3] of 780 nM.
